Measurements from the supplement of paper PMC10307832.

Experiments:
Assay in all cases: relative viability (nuclei count vs DMSO), 5 days (fraction); higher = more cells survive
[1] = tested on: A-427
Method in brief: (§1)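 For relative viability, nuclei counts in treated wells were divided by those in vehicle wells. Lung cancer cell lines had been pin-tool dosed in 1536-well plates the day after seeding and cultured for 5 days, then fixed and stained in one step (final 0.05% Triton X-100, 1% formaldehyde, 1 ug/ml Hoechst) and imaged at 4×. Doses were one drug alone or a fixed anchor-drug dose plus five library-drug doses (not always all listed) in √10 steps, and values are duplicate-plate medians.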

[2] = tested on: COR-L 105
Method in brief: as §1

[3] = tested on: EKVX
Method in brief: as §1

[4] = tested on: EMC-BAC-2
Method in brief: as §1

[5] = tested on: H3255
Method in brief: as §1

[6] = tested on: HCC-366
Method in brief: as §1

[7] = tested on: LK-2
Method in brief: as §1

[8] = tested on: LOU-NH91
Method in brief: as §1

[9] = tested on: NCI-H1563
Method in brief: as §1

[10] = tested on: NCI-H1666
Method in brief: as §1

[11] = tested on: NCI-H1734
Method in brief: as §1

[12] = tested on: NCI-H1755
Method in brief: as §1

[13] = tested on: NCI-H1792
Method in brief: as §1

[14] = tested on: NCI-H1975
Method in brief: as §1

[15] = tested on: NCI-H2170
Method in brief: as §1

[16] = tested on: NCI-H23
Method in brief: as §1

[17] = tested on: NCI-H520
Method in brief: as §1

[18] = tested on: NCI-H596
Method in brief: as §1

[19] = tested on: PC-3 [JPC-3]
Method in brief: as §1

[20] = tested on: SK-MES-1
Method in brief: as §1

SMILES: O=C(O)c1ccc(-c2c[nH]c3ncc(-c4ccccc4)cc23)cc1C1CCCC1 + CS(=O)(=O)CCNCc1ccc(-c2ccc3ncnc(Nc4ccc(OCc5cccc(F)c5)c(Cl)c4)c3c2)o1 [Lapatinib] (partner 2 µM)
- relative viability ([1]; first compound 0.04 µM): 0.965
- relative viability ([1]; first compound 0.1265 µM): 1.06
- relative viability ([1]; first compound 0.4 µM): 0.986
- relative viability ([1]; first compound 1.265 µM): 0.935
- relative viability ([2]; first compound 0.04 µM): 0.363
- relative viability ([2]; first compound 0.1265 µM): 0.401
- relative viability ([2]; first compound 0.4 µM): 0.347
- relative viability ([2]; first compound 1.265 µM): 0.371
- relative viability ([3]; first compound 0.04 µM): 0.218
- relative viability ([3]; first compound 0.1265 µM): 0.216
- relative viability ([3]; first compound 0.4 µM): 0.212
- relative viability ([3]; first compound 1.265 µM): 0.187
- relative viability ([4]; first compound 0.04 µM): 0.848
- relative viability ([4]; first compound 0.1265 µM): 1.03
- relative viability ([4]; first compound 0.4 µM): 0.916
- relative viability ([4]; first compound 1.265 µM): 0.946
- relative viability ([5]; first compound 0.04 µM): 0.24
- relative viability ([5]; first compound 0.1265 µM): 0.231
- relative viability ([5]; first compound 0.4 µM): 0.26
- relative viability ([5]; first compound 1.265 µM): 0.275
- relative viability ([6]; first compound 0.04 µM): 1.01
- relative viability ([6]; first compound 0.1265 µM): 0.869
- relative viability ([6]; first compound 0.4 µM): 0.953
- relative viability ([6]; first compound 1.265 µM): 0.981
- relative viability ([7]; first compound 0.04 µM): 0.968
- relative viability ([7]; first compound 0.1265 µM): 0.902
- relative viability ([7]; first compound 0.4 µM): 0.744
- relative viability ([7]; first compound 1.265 µM): 0.934
- relative viability ([8]; first compound 0.04 µM): 0.814
- relative viability ([8]; first compound 0.1265 µM): 0.837
- relative viability ([8]; first compound 0.4 µM): 0.766
- relative viability ([8]; first compound 1.265 µM): 0.651
- relative viability ([9]; first compound 0.04 µM): 1.07
- relative viability ([9]; first compound 0.1265 µM): 0.939
- relative viability ([9]; first compound 0.4 µM): 0.933
- relative viability ([9]; first compound 1.265 µM): 0.968
- relative viability ([10]; first compound 0.04 µM): 0.673
- relative viability ([10]; first compound 0.1265 µM): 0.522
- relative viability ([10]; first compound 0.4 µM): 0.796
- relative viability ([10]; first compound 1.265 µM): 0.344
- relative viability ([11]; first compound 0.04 µM): 1.07
- relative viability ([11]; first compound 0.1265 µM): 1.1
- relative viability ([11]; first compound 0.4 µM): 0.955
- relative viability ([11]; first compound 1.265 µM): 0.984
- relative viability ([12]; first compound 0.04 µM): 1.02
- relative viability ([12]; first compound 0.1265 µM): 1.11
- relative viability ([12]; first compound 0.4 µM): 1.02
- relative viability ([12]; first compound 1.265 µM): 0.967
- relative viability ([13]; first compound 0.04 µM): 0.77
- relative viability ([13]; first compound 0.1265 µM): 0.942
- relative viability ([13]; first compound 0.4 µM): 0.953
- relative viability ([13]; first compound 1.265 µM): 0.847
- relative viability ([14]; first compound 0.04 µM): 0.873
- relative viability ([14]; first compound 0.1265 µM): 1.02
- relative viability ([14]; first compound 0.4 µM): 1
- relative viability ([14]; first compound 1.265 µM): 0.49
- relative viability ([15]; first compound 0.04 µM): 0.26
- relative viability ([15]; first compound 0.1265 µM): 0.324
- relative viability ([15]; first compound 0.4 µM): 0.262
- relative viability ([15]; first compound 1.265 µM): 0.28
- relative viability ([16]; first compound 0.04 µM): 1.12
- relative viability ([16]; first compound 0.1265 µM): 0.894
- relative viability ([16]; first compound 0.4 µM): 0.919
- relative viability ([16]; first compound 1.265 µM): 0.752
- relative viability ([17]; first compound 0.04 µM): 1.01
- relative viability ([17]; first compound 0.1265 µM): 0.858
- relative viability ([17]; first compound 0.4 µM): 0.847
- relative viability ([17]; first compound 1.265 µM): 0.604
- relative viability ([18]; first compound 0.04 µM): 1.1
- relative viability ([18]; first compound 0.1265 µM): 1.02
- relative viability ([18]; first compound 0.4 µM): 0.979
- relative viability ([18]; first compound 1.265 µM): 1.03
- relative viability ([19]; first compound 0.04 µM): 0.51
- relative viability ([19]; first compound 0.1265 µM): 0.489
- relative viability ([19]; first compound 0.4 µM): 0.466
- relative viability ([19]; first compound 1.265 µM): 0.459
- relative viability ([20]; first compound 0.04 µM): 0.443
- relative viability ([20]; first compound 0.1265 µM): 0.495
- relative viability ([20]; first compound 0.4 µM): 0.464
- relative viability ([20]; first compound 1.265 µM): 0.412
